Paper PMC5331433, “Ustiloxin G, a New Cyclopeptide Mycotoxin from Rice False Smut Balls” (Toxins, 2017)

Key:
BGC-823 = assay: Cytotoxicity, MTT assay, BGC-823; assay type: cell-based, human; settings: 24 h treatment, absorbance 570 nm, three replicates
Protocol: (§1) Cytotoxicity of the compounds were tested against human carcinoma cells using the microculture methyl-thiazolyl-tetrazolium (MTT) assay as described previously. Briefly, the cell lines were maintained in a humidified atmosphere containing 5% CO2 at 37 °C. For preparing working solution, 1 μmol of each purified ustiloxin was dissolved in 10 mL of ultrapure water to obtain the stock solution (100 μM), which was further diluted to a series of concentrations (50, 25, 12.5, 6.25, 3.125, 1, 0.1, 1 × 10^−2, 1 × 10^−3, 1 × 10^−4, 1 × 10^−5 μM) with ultrapure water. Normally, 200 μL of the cell suspensions (5 × 10^4 cells/mL) was plated in 96-well culture plates at 37 °C. After 12 h, 20 μL of working solution was added to each well respectively and cultured at 37 °C for 24 h. Then, MTT was dissolved in saline to 5 mg/mL, and 20 μL of this solution was added to each well. After 4 h, the medium was removed, and then 100 μL of DMSO was added to dissolve any formazan crystals formed. Absorbance was then determined at 570 nm. The cell lines of colon cancer cells (HCT-116), non-small-cell lung carcinoma cells (NCI-H1650), gastric cancer cells (BGC-823), and liver hepatocellular carcinoma cells (HepG2) were tested for all isolated compounds. In addition, lung adenocarcinoma cells (A549) were tested on ustiloxins A (2), B (3), and G (1), and melanoma cells (A375) were tested on ustiloxin G (1). Ultrapure water and taxol were used as the negative and positive controls, respectively. All experiments were performed with three replicates.

HCT116 = assay: Cytotoxicity, MTT assay, HCT116; assay type: cell-based, human; settings: 24 h treatment, absorbance 570 nm, three replicates
Protocol: as §1

HepG2 = assay: Cytotoxicity, MTT assay, HepG2; assay type: cell-based, human; settings: 24 h treatment, absorbance 570 nm, three replicates
Protocol: as §1

A549 = assay: Cytotoxicity, MTT assay, A549; assay type: cell-based, human; settings: 24 h treatment, absorbance 570 nm, three replicates
Protocol: as §1

A375 = assay: Cytotoxicity, MTT assay, A375; assay type: cell-based, human; settings: 24 h treatment, absorbance 570 nm, three replicates
Protocol: as §1, with “Ultrapure water and taxol were used as the negative and positive controls, respectively. All experiments were performed with three replicates.” left out

[1] = tested on: rice (Oryza sativa) seeds, germ; assay: Inhibition of germ elongation of rice seeds; settings: 48 h, 25 °C, dark, mean of triplicate ± SD
Protocol: (§2) Phytotoxicity of the compounds was evaluated by their inhibitory activities on the radicle and germ elongation of rice (Oryza sativa) seeds. Two varieties (Lijiang and Zhonghua 11) of the seeds, which were obtained from Prof. Zejian Guo (Department of Plant Pathology and collected in 2015, China Agricultural University) were used.
(§3) The bioassay was performed using the method described previously with some modifications. Briefly, five 3-day germinated rice seeds of each rice variety were sown onto each well of a 24-well plate, containing 200 μL of working solution. For preparing working solution, 1 mg of each purified compound was dissolved in 1 mL of ultrapure water to obtain the stock solution (1 mg/mL), which was further diluted to a series of concentrations (200, 100, 50, 20, and 10 μg/mL) with ultrapure water. The ultrapure water was used as the negative control, and glyphosate (N-(phosphonomethyl)glycine) at the same concentrations as the positive control. Plates were incubated in a moist chamber at 25 °C in the dark. The length of each radicle or germ was measured after treatment for 48 h. The inhibition of radicle or germ elongation was calculated as follows: Inhibition (%) = [(Lc − Lt)/Lc] × 100, where Lc is the radicle or germ length of the control group, and Lt is the length of the treated group.
(§4) All experiments were performed with three replicates, and the results were represented by their mean values and the standard deviations (SD). The data were carried out using analysis of variance (one-way ANOVA) to detect significant differences by PROC ANOVA of SAS version 8.2.

rice seedlings = assay: Abnormal swelling of roots and germs of rice seedlings; parameters: species or system Oryza sativa; settings: observation in words; Figure 3B shows 200 µg/mL of ustiloxin G, variety Lijiang
Protocol: as §3

NCI-H1650 = assay: Cytotoxicity, MTT assay, NCI-H1650; assay type: cell-based, human; settings: 24 h treatment, absorbance 570 nm, three replicates
Protocol: as §1

[2] = tested on: rice (Oryza sativa) seeds, radicle; assay: Inhibition of radicle elongation of rice seeds; settings: 48 h, 25 °C, dark, mean of triplicate ± SD
Protocol: as §2, §3, §4

CC[C@@]1(C)Oc2cc(c([S+]([O-])CCO)cc2O)[C@@H](O)[C@H](NC)C(=O)N[C@@H](C(C)C)C(=O)N[C@@H]1C(=O)NCC(=O)O (stereo partly drawn) [Ustiloxin G (1), ustiloxin G]
IC50 (BGC-823; gastric cancer cells): > 50000 nM | IC50 (HCT116; colon cancer cells): > 50000 nM | IC50 (HepG2; liver hepatocellular carcinoma cells): > 50000 nM | IC50 (A549; lung adenocarcinoma cells): 36500 nM | IC50 (A375; melanoma cells): 22500 nM | Inhibition Ratio (%) Seed Germ Var. Lijiang ([1]; 10 µg/mL): 2.74 ± 4.76 l % | Inhibition Ratio (%) Seed Germ Var. Zhonghua 11 ([1]; 10 µg/mL): 14.11% | Inhibition Ratio (%) Seed Germ Var. Lijiang ([1]; 20 µg/mL): 8.89% | Inhibition Ratio (%) Seed Germ Var. Zhonghua 11 ([1]; 20 µg/mL): 14.68% | Inhibition Ratio (%) Seed Germ Var. Lijiang ([1]; 50 µg/mL): 27.96 ± 3.32 f % | Inhibition Ratio (%) Seed Germ Var. Zhonghua 11 ([1]; 50 µg/mL): 36.29% | Inhibition Ratio (%) Seed Germ Var. Lijiang ([1]; 100 µg/mL): 36.95 ± 5.23 e % | Inhibition Ratio (%) Seed Germ Var. Zhonghua 11 ([1]; 100 µg/mL): 39.33% | Inhibition Ratio (%) Seed Germ Var. Lijiang ([1]; 200 µg/mL): 65.01% | Inhibition Ratio (%) Seed Germ Var. Zhonghua 11 ([1]; 200 µg/mL): 50.45% | abnormal swelling of the roots and germs of rice seedlings (rice seedlings): abnormal swelling | IC50 (NCI-H1650; non-small-cell lung carcinoma cells): > 50000 nM | Inhibition Ratio (%) Seed Radicle Var. Lijiang ([2]; 10 µg/mL): 12.56% | Inhibition Ratio (%) Seed Radicle Var. Zhonghua 11 ([2]; 10 µg/mL): 27.27% | Inhibition Ratio (%) Seed Radicle Var. Lijiang ([2]; 20 µg/mL): 17.00% | Inhibition Ratio (%) Seed Radicle Var. Zhonghua 11 ([2]; 20 µg/mL): 31.67% | Inhibition Ratio (%) Seed Radicle Var. Lijiang ([2]; 50 µg/mL): 37.64 ± 1.21 g % | Inhibition Ratio (%) Seed Radicle Var. Zhonghua 11 ([2]; 50 µg/mL): 54.14 ± 4.20 d % | Inhibition Ratio (%) Seed Radicle Var. Lijiang ([2]; 100 µg/mL): 90.33% | Inhibition Ratio (%) Seed Radicle Var. Zhonghua 11 ([2]; 100 µg/mL): 90.16 ± 3.62 a % | Inhibition Ratio (%) Seed Radicle Var. Lijiang ([2]; 200 µg/mL): 95.19 ± 1.92 a % | Inhibition Ratio (%) Seed Radicle Var. Zhonghua 11 ([2]; 200 µg/mL): 93.40 ± 1.91 a %

CC(=O)O[C@H]1C(=O)[C@@]2(C)[C@H]([C@H](OC(=O)c3ccccc3)[C@]3(O)C[C@H](OC(=O)[C@H](O)[C@@H](NC(=O)c4ccccc4)c4ccccc4)C(C)=C1C3(C)C)[C@]1(OC(C)=O)CO[C@@H]1C[C@@H]2O [Taxol, reference compound]
IC50 (BGC-823; Homo sapiens, BGC-823, gastric cancer cells): 0.107 nM | IC50 (HCT116; Homo sapiens, HCT-116, colon cancer cells): 1.9 nM | IC50 (HepG2; Homo sapiens, HepG2, liver hepatocellular carcinoma cells): 14.6 nM | IC50 (A549; Homo sapiens, A549, lung adenocarcinoma cells): 23 nM | IC50 (A375; Homo sapiens, A-375, melanoma cells): 22 nM | IC50 (NCI-H1650; Homo sapiens, NCI-H1650, non-small-cell lung carcinoma cells): 1100 nM
